# Reference: article PMC10934261, “Designing Potent Anti-Cancer Agents: Synthesis and Molecular Docking Studies of Thieno[2,3-d][1,2,4]triazolo[1,5-a]pyrimidine Derivatives” (Molecules, 2024)
# Columns and labels:
# [1] = test system: human prostate PC-3 cancer cell line; assay: In vitro cytotoxic screening (MTT assay), PC-3; type: cell-based; conditions: average ± standard deviation
# Description: (§1) Using human breast MCF-7, colorectal HCT-116, and prostate PC-3 cancer cell lines, preliminary antiproliferative effectiveness of cyclopenta[4,5]thieno[2,3-d][1,2,4]triazolo[1,5-a]pyrimidin-9(6H)-ones 4–16 was established in vitro through MTT assay at different concentrations (100, 50, 25 and 12.5 μM) (Figure 2).
# (§2) The cell lines were obtained from Karolinska Center, Department of Oncology and Pathology, Karolinska Institute and Hospital, Stockholm, Sweden. as follows: human breast MCF-7, colorectal HCT-116 and prostate PC-3 cancer cell lines and human skin normal BJ-1 cell line. Exponentially, cells were cultured at a concentration of 10^4 cells/well for 24 h, afterwards fresh medium containing different concentrations of the tested samples was added. Serial two-fold dilution of the tested samples were added using a multichannel pipette. Moreover, all cells were cultivated at 37 °C, 5% CO2 and 95% humidity. Also, incubation of control cells occurred at 37 °C. However, after incubation for 24 h different concentrations of samples (100, 50, 25 and 12.5 µM) were added and the incubation was continued for 48 h, then crystal violet solution 1% was added to each well for 0.5 h to examine the presence of viable cells. After rinsing the wells using water until stain free, 30% glacial acetic acid was added to all wells with shaking the plates on a Microplate reader (TECAN, Inc.) to measure the absorbance at a wavelength of 490 nm. The cytotoxicity was estimated by IC50 in μM, which is the concentration that inhibits 50% of growth of cancer cells. […]
# (§3) 1.1. In vitro cytotoxic screening
# (§4) The cell lines were obtained from Karolinska Center, Department of Oncology and Pathology, Karolinska Institute and Hospital, Stockholm, Sweden. as follows: human breast MCF-7, colorectal HCT-116 and prostate PC-3 cancer cell lines and human skin normal BJ-1 cell line. Exponentially, cells were placed in 10^4 cells/ well for 24 h, and then add fresh medium which containing different concentration of the tested sample. Serial two-fold dilution of the tested sample were added using a multichannel pipette. Moreover, all cells were cultivated at 37 °C, 5% CO2 and 95% humidity. Also, incubation of control cells occurred at 37 °C. However, after incubation for 24 h different concentrations of sample (100, 50, 25 and 12.5 µM) were added and continued the incubation for 48 h, then, add the crystal violet solution 1% to each well for 0.5 h to examine viable cells. Rinse the wells using water until no stain. After that, add 30% glacial acetic acid to all wells with shaking plates on Microplate reader (TECAN, Inc.) to measure the absorbance, using a test wavelength of 490 nm. Besides, compare the treated samples with the control cell. The cytotoxicity was estimated by IC50 in (μ M), the concentration that inhibits 50% of growth of cancer cell. […]
# (§5) The molecular docking simulation of the promising in vitro screened cyclopenta[4,5]thieno[2,3-d][1,2,4]triazolo[1,5-a]pyrimidin-9(6H)-ones 10b and 10e against EGFR and PI3K was done using the Molecular Operating Environment software (MOE-Dock) version 2014.0901. The co-crystallized structures of EGFR and PI3K kinases complexed with their native ligands, erlotinib and quinolone LXX, were downloaded from the protein data bank (PDB codes: 1M17 and 3L54, respectively). All minimizations were performed using MOE until an RMSD gradient of 0.05 kcal∙mol−1Å−1 with MMFF94x force field and the partial charges were automatically calculated. Preparation of the enzyme structures was done for molecular docking using Protonate 3D protocol with the default options in MOE. London dG scoring function and Triangle Matcher placement method were used in the docking protocol. Initially, the original ligands were re-docked into the active binding site of EGFR and PI3K kinases to assess the root-mean-square deviation values. Then, the docking studies of the newly targeted […]
# [2] = test system: human colorectal HCT-116 cancer cell line; assay: In vitro cytotoxic screening (MTT assay), HCT-116; type: cell-based; conditions: average ± standard deviation
# Description: as §1, §2, §3, §4, §5
# [3] = test system: human breast MCF-7 cancer cell line; assay: In vitro cytotoxic screening (MTT assay), MCF-7; type: cell-based; conditions: for Percentage cytotoxicity on MCF-7: average ± standard deviation
# Description: as §1, §2, §3, §4, §5
SMILES,Percentage cytotoxicity on PC-3 ([1]; 12.5 µM),Percentage cytotoxicity on PC-3 ([1]; 25 µM),Percentage cytotoxicity on PC-3 ([1]; 50 µM),Percentage cytotoxicity on PC-3 ([1]; 100 µM),Percentage cytotoxicity on HCT-116 ([2]; 12.5 µM),Percentage cytotoxicity on HCT-116 ([2]; 25 µM),Percentage cytotoxicity on HCT-116 ([2]; 50 µM),Percentage cytotoxicity on HCT-116 ([2]; 100 µM),Percentage cytotoxicity on MCF-7 ([3]; 12.5 µM),Percentage cytotoxicity on MCF-7 ([3]; 25 µM),Percentage cytotoxicity on MCF-7 ([3]; 50 µM),Percentage cytotoxicity on MCF-7 ([3]; 100 µM),melting point,"IC50 ([3]; Homo sapiens, MCF7, MCF-7, 48 h incubation, mean of three values, read-out: IC50 (Mean ± SD) MCF-7)"
"CCOC(=O)Cc1nn2c(=O)c3c4c(sc3nc2[nH]1)CCC4 [Compound 6, Ethyl 2-(9-oxo-6,7,8,9-tetrahydro-3H-cyclopenta[4,5]thieno[2,3-d][1,2,4]triazolo[1,5-a]-pyrimidin-2-yl)acetate]",0.0±0.005%,0.0±0.005%,0.0±0.005%,15.1±4.1%,0.0±0.005%,0.0±0.005%,0.0±0.005%,0.0±0.005%,0.0±0.005%,0.0±0.005%,0.0±0.005%,24±2.5%,> 300 °C,
"CC(=O)OC[C@@H](OC(C)=O)[C@@H](OC(C)=O)[C@H](OC(C)=O)c1nc2nc3sc4c(c3c(=O)n2[nH]1)CCC4 [Compound 12d, (1R,2S,3R)-1-(9-oxo-1,7,8,9-tetrahydro-6H-cyclopenta[4,5]thieno[2,3-d][1,2,4]triazolo[1,5-a]pyrimidin-2-yl)butane-1,2,3,4-tetrayl tetraacetate]",0.0±0.005%,0.0±0.005%,0.0±0.005%,14.1±6.2%,0.0±0.005%,0.0±0.005%,0.0±0.005%,9.5±1.2%,0.0±0.005%,0.0±0.005%,0.0±0.005%,26.9±4.8%,> 300 °C,
"O=c1c2c3c(sc2nc2nc([C@@H](O)[C@@H](O)[C@H](O)[C@H](O)CO)[nH]n12)CCC3 [Compound 11c, 2-((1R,2R,3R,4R)-1,2,3,4,5-pentahydroxypentyl)-1,6,7,8-tetrahydro-9H-cyclopenta[4,5]thieno[2,3-d][1,2,4]triazolo[1,5-a]pyrimidin-9-one]",0.0±0.005%,0.0±0.005%,0.0±0.005%,8.5±4.5%,12.7±1.7%,19.5±3.7%,22.3±0.9%,20.6±5.4%,0.0±0.005%,0.0±0.005%,16.5±2.1%,38.7±1.5%,> 300 °C,
"CC(=O)OC[C@@H](OC(C)=O)[C@H](OC(C)=O)[C@H](OC(C)=O)[C@@H](OC(C)=O)c1nc2nc3sc4c(c3c(=O)n2[nH]1)CCC4 [Compound 12b, (1S,2R,3S,4R)-1-(9-oxo-1,7,8,9-tetrahydro-6H-cyclopenta[4,5]thieno[2,3-d][1,2,4]triazolo[1,5-a]pyrimidin-2-yl)pentane-1,2,3,4,5-pentayl pentaacetate]",1.5±2.3%,4.8±1.1%,7.3±0.9%,20.6±3.3%,0.0±0.005%,0.0±0.005%,0.0±0.005%,13.3±3.1%,0.0±0.005%,5.5±0.6%,20.8±2.1%,30.1±7.5%,> 300 °C,
"O=c1c2c3c(sc2nc2nc([C@H](O)[C@@H](O)[C@@H](O)[C@H](O)CO)[nH]n12)CCC3 [Compound 11b, 2-((1S,2R,3S,4R)-1,2,3,4,5-pentahydroxypentyl)-1,6,7,8-tetrahydro-9H-cyclopenta[4,5]thieno[2,3-d][1,2,4]triazolo[1,5-a]pyrimidin-9-one]",0.0±0.005%,0.0±0.005%,0.0±0.005%,12.7±3.8%,18.2±2.3%,16.1±1.6%,21.8±1.9%,18.7±7.6%,0.0±0.005%,0.0±0.005%,22.1±6.9%,39.4±8.3%,> 300 °C,
"O=c1c2c3c(sc2nc2[nH]c(=S)[nH]n12)CCC3 [Compound 9, 2-Thioxo-2,3,7,8-tetrahydro-1H-cyclopenta[4,5]thieno[2,3-d][1,2,4]triazolo[1,5-a]pyrimidin-9(6H)-one]",3.7±1.3%,6.3±0.9%,7.8±1.3%,19.3±3.5%,0.0±0.005%,0.0±0.005%,0.0±0.005%,0.0±0.005%,0.0±0.005%,28.4±2.6%,32.7±2.4%,62.5±7.6%,> 300 °C,71.8 ± 1.05 µM
"O=c1c2c3c(sc2nc2[nH]cnn12)CCC3 [Compound 4, 7,8-Dihydro-3H-cyclopenta[4,5]thieno[2,3-d][1,2,4]triazolo[1,5-a]pyrimidin-9(6H)-one]",0.0±0.005%,0.0±0.005%,0.0±0.005%,11.3±3.7%,0.0±0.005%,0.0±0.005%,0.0±0.005%,9.1±2.0%,31.5±5.7%,23.6±3.2%,35.5±4.4%,34.8±4.1%,> 300 °C,
"O=c1c2c3c(sc2nc2[nH]c(-c4ccc([N+](=O)[O-])cc4)nn12)CCC3 [Compound 10c, 2-(4-Nitrophenyl)-3,6,7,8-tetrahydro-9H-cyclopenta[4,5]thieno[2,3-d][1,2,4]triazolo[1,5-a]pyrimidin-9-one]",48.3±2.0%,53.4±1.2%,54.8±1.6%,54.7±2.8%,20.2±2.9%,38.2±0.9%,39.4±0.9%,40.4±2.4%,8.18±1.01%,24.04±2.59%,25.97±1.28%,33.62±2.13%,220 °C,
